Drawing on patent US8883835B2, “Plant disease controlling composition and method for controlling plant disease” (priority 2008, dated 2014), this text covers Actual effective value for four compounds.

Structures are written as SMILES.

The test system of the test is Sclerotinia sclerotiorum. The experiment in a line: Controlling test against Sclerotinia sclerotiorum on cucumber by foliage spraying (Test Example 1). The class given is in vivo. Particulars: single compound, 12° C. and high humidity for 6 days. The method, then: A sand loam was filled into a plastic pot, and cucumber (Sagamihanjiro) was seeded, and grown in a greenhouse for 12 days. A flowable of the compound I, and an emulsifiable concentrate of any one of the compound II to the compound IV were diluted with water separately, and they were tank-mixed to prepare a tank mix solution containing the compound I and any one of the compounds II to IV at predetermined concentrations. The tank mix solution was subjected to foliage spraying so that it was sufficiently adhered to a leaf surface of the cucumber. After spraying, the plant was air-dried, and a PDA medium containing hyphae of Sclerotinia sclerotiorum was placed on the cucumber leaf surface. After seeding, this was placed under 12° C. and high humidity for 6 days, the controlling effect was investigated. Separately, for comparison, a flowable of the compound I, or an emulsifiable concentrate of any one compound of the compound II to the compound IV was diluted with water to prepare a water-diluted solution containing the predetermined amount of any one of compounds I to IV, and the similar controlling test was carried out. Further, for calculating an effective value, an onset area rate (ratio of onset area occupied in leaf area examined) in each treatment group was determined. The effective value was calculated by the Equation 1. […] A: Onset area rate of non-treated group B: Onset area rate of treated group In general, a effective value expected in treatment by mixing given two kinds of active ingredient compounds, i.e., an expected effective value is calculated by a Colby calculation equation of the Equation 2. E=X+Y−(X×Y)/100 “Equation 2” X: Effective value obtained by treatment with M ppm of the compound I Y: Effective value obtained by treatment with N ppm of the compound II, III or IV E: Effective value expected in treatment with M ppm of the compound I and N ppm of the compound II, III or IV (expected effective value) In addition, a synergistic effect was shown herein by a value calculated by the following Equation 3.

[1] abbreviates: active ingredient concentration 3.1 ppm.

Turning to `Fc1ccc([C@]2(Cn3cncn3)O[C@H]2c2ccccc2Cl)cc1` (racemic) [Compound IV, (2RS,3SR)-1-[3-(2-chlorophenyl)-2,3-epoxy-2-(4-fluorophenyl)propyl]-1H-1,2,4-triazole], the Actual effective value under setting [1] is on record as 6%.
On to `CC1(C)CCC(Cc2ccc(Cl)cc2)C1(O)Cn1cncn1` (stereo not drawn) [Compound II, (1RS,5RS;1RS,5SR)-5-(4-chlorobenzyl)-2,2-dimethyl-1-(1H-1,2,4-triazol-1-ylmethyl)cyclopentanol], for which the Actual effective value runs as follows: (active ingredient concentration 0.8 ppm) 0%; under setting [1], 5%.
On to `Clc1ccc(C2(Cn3cncn3)CC(Br)CO2)c(Cl)c1` (stereo not drawn) [Compound III, 1-[(2RS,4RS:2RS,4SR)-4-bromo-2-(2,4-dichlorophenyl)tetrahydrofurfuryl]-1H-1,2,4-triazole], for which the Actual effective value under setting [1] came to 1%.
On the same count and under the same terms, with `C=CCSC(=O)n1c(N)c(-c2ccccc2C)c(=O)n1C(C)C` [Compound I] the figure was 58%.
